What was measured:
[1] = test system: Chenopodium spp., Papaver spp., Polygonum spp., Veronica spp. or Viola spp.; experiment: Post-emergence effect on weeds (greenhouse pot test, visual scoring); assay type: in vivo, monocotyledonous and dicotyledonous weeds; settings: treated at three-leaf stage; visual scoring after about 3 to 4 weeks; application rate of 0.5 kg and less of active substance per hectare
[2] = test system: Cyperus spp., Echinochloa spp., Digitaria spp., Sagitaria spp. and Scirpus spp.; experiment: Action on harmful plants in rice (paddy rice conditions, visual scoring); assay type: in vivo, typical rice weeds (gramineous and broad-leaved); settings: applied into the dammed water, visual scoring about three weeks after application
Summary of the method: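 Under paddy conditions with 2-3 cm dammed water, transplanted and sown rice plus weeds were treated at three-leaf stage (E. crus-galli at 1.5 leaves). Pots stayed in greenhouse under optimum growth conditions for the test period, with visual assessment of damage.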

Row | SMILES | herbicidal activity post-emergence against harmful plants [1] | herbicidal activity against harmful plants which are typical for rice crops [2]
1 | CCC(F)c1nc(N)nc(NC(C)c2cc(F)c(C(F)=C(F)F)c(F)c2)n1 (centres unmarked) [Product P27.49] | very good herbicidal activity | very good herbicidal activity
2 | Cc1nc(N)nc(NCc2ccc(F)c(C3CC3)c2)n1 [Product P1.916] | very good herbicidal activity | very good herbicidal activity
3 | CC(Nc1nc(N)nc(C(C)(C)F)n1)c1cc(F)c(C2CC2)c(F)c1 (centres unmarked) [Product P17.960] | very good herbicidal activity | very good herbicidal activity
4 | C#Cc1ccc(C(Nc2nc(N)nc(C(C)F)n2)C2CC2)cc1 (centres unmarked) [Product P24.1580] | very good herbicidal activity | very good herbicidal activity
5 | C#Cc1cc(C(C)Nc2nc(C)nc(N)n2)ccc1F (centres unmarked) [Product P2.309] | very good herbicidal activity | very good herbicidal activity
6 | C#Cc1ccc(C(C)Nc2nc(N)nc(CC)n2)cc1 (centres unmarked) [Product P7.1580] | very good herbicidal activity | very good herbicidal activity
7 | CC(C)c1nc(N)nc(NC(C)c2cccc(C(F)=C(F)F)c2)n1 (centres unmarked) [Product P12.1567] | very good herbicidal activity | very good herbicidal activity
8 | CC(Nc1nc(N)nc(C(C)(C)F)n1)c1ccc(C(F)=C(F)F)cc1 (centres unmarked) [Product P17.1568] | very good herbicidal activity | very good herbicidal activity
9 | C#Cc1cc(C(Nc2nc(N)nc(C(F)CC)n2)C2CC2)ccc1F (centres unmarked) [Product P29.309] | very good herbicidal activity | very good herbicidal activity
10 | C#Cc1ccc(C(C)Nc2nc(C)nc(N)n2)cc1F (centres unmarked) [Product P2.1620] | very good herbicidal activity | very good herbicidal activity
11 | CCc1nc(N)nc(NC(C)c2cccc(C(F)=C(F)F)c2)n1 (centres unmarked) [Product P7.1567] | very good herbicidal activity | very good herbicidal activity
12 | C#Cc1cccc(C(C)Nc2nc(N)nc(C(C)(C)F)n2)c1 (centres unmarked) [Product P17.1579] | very good herbicidal activity | very good herbicidal activity
13 | C=C=Cc1c(F)cc(C(C)Nc2nc(N)nc(C(C)(C)F)n2)cc1F (centres unmarked) [Product P17.656] | very good herbicidal activity | very good herbicidal activity
14 | C#Cc1cc(C(Nc2nc(N)nc(CC)n2)C2CC2)ccc1F (centres unmarked) [Product P9.309] | very good herbicidal activity | very good herbicidal activity
15 | CCC(F)c1nc(N)nc(NC(C)c2ccc(F)c(C#CC(C)O)c2)n1 (centres unmarked) [Product P27.840] | very good herbicidal activity | very good herbicidal activity
16 | C#Cc1cccc(C(Nc2nc(N)nc(C(C)(C)F)n2)C2CC2)c1 (centres unmarked) [Product P19.1579] | very good herbicidal activity | very good herbicidal activity
17 | Cc1nc(N)nc(NC(C)c2ccc(C3CC3)cc2)n1 (centres unmarked) [Product P2.1604] | very good herbicidal activity | very good herbicidal activity
18 | C#Cc1ccc(C(C)Nc2nc(N)nc(CC)n2)cc1C (centres unmarked) [Product P7.335] | very good herbicidal activity | very good herbicidal activity
19 | CCc1nc(N)nc(NCc2cc(F)c(C3CC3)c(F)c2)n1 [Product P6.960] | very good herbicidal activity | very good herbicidal activity
20 | CCc1nc(N)nc(NC(C)c2cc(F)c(C(F)=C(F)F)c(F)c2)n1 (centres unmarked) [Product P7.49] | very good herbicidal activity | very good herbicidal activity
21 | Cc1nc(N)nc(NC(C)c2cc(F)c(C(F)=C(F)F)c(F)c2)n1 (centres unmarked) [Product P2.49] | very good herbicidal activity | very good herbicidal activity
22 | CC#Cc1c(F)cc(C(Nc2nc(N)nc(C(C)C)n2)C2CC2)cc1F (centres unmarked) [Product P14.428] | very good herbicidal activity | very good herbicidal activity
23 | CCc1nc(N)nc(NC(C)c2cccc(C3CC3)c2)n1 (centres unmarked) [Product P7.1603] | very good herbicidal activity | very good herbicidal activity
24 | CC#Cc1cc(C(Nc2nc(N)nc(CC)n2)C2CC2)ccc1F (centres unmarked) [Product P9.384] | very good herbicidal activity | very good herbicidal activity
25 | CC(O)C#Cc1cccc(C(C)Nc2nc(N)nc(C(C)(C)F)n2)c1 (centres unmarked) [Product P17.1600] | very good herbicidal activity | very good herbicidal activity
26 | CCc1nc(N)nc(NC(C)c2cc(F)c(C3CC3)c(F)c2)n1 (centres unmarked) [Product P7.960] | very good herbicidal activity | very good herbicidal activity
27 | C#Cc1ccc(CNc2nc(N)nc(C(F)CC)n2)cc1 (centres unmarked) [Product P26.1580] | very good herbicidal activity | very good herbicidal activity
28 | CCc1nc(N)nc(NCc2ccc(C(F)=C(F)F)cc2)n1 [Product P6.1568] | very good herbicidal activity | very good herbicidal activity
